Assay results taken from publication PMC6161010, “A Simple and Sensitive Liquid Chromatography with Tandem Mass Spectrometric Method for the Simultaneous Determination of Anthraquinone Glycosides and Their Aglycones in Rat Plasma: Application to a Pharmacokinetic Study of Rumex acetosa Extract” (Pharmaceutics, 2018).
Read-outs that look alike come from different tables or passages of the source.

What was measured:
[1] = Pharmacokinetic study after oral administration of R. acetosa extract to rats; type: in vivo, Sprague‒Dawley rats; details: oral R. acetosa extract 2 g/kg; for MRT / half-life / Tmax / first time detected in plasma of every rat (first sampling time) / time from which plasma concentrations were below the LLOQ / time until which the analyte could be detected in plasma / plasma concentrations (in words): rat; for MRT / half-life / Cmax / AUC(0-t): n = 3, mean ± SD; for Cmax / AUC(0-t): rat plasma; for AUC(0-t): last measured time points for C, E, CG, PG 6, 24, 8, 6 h
Experimental: The analysis was performed on an Agilent 1260 series (Agilent Technologies, Waldbronn, Germany) HPLC system. Chromatographic separation of the samples was carried out on a Kinetex Biphenyl column (100 × 3.0 mm, 2.6 μm, 110 Å, Phenomenex, Torrance, CA, USA). The mobile phase consisted of 2 mM ammonium formate (pH 6) in water (A) and 2 mM ammonium formate (pH 6) in methanol (B). The gradient program was used at a flow rate of 0.3 mL/min while maintaining the column temperature at 40 °C. The mobile phase initial composition of 25% B was maintained for 2 min. It was then increased linearly from 25% to 95% B for 0.5 min and held for 7 min. The gradient was then changed back to the initial condition for 0.5 min and kept at the initial condition for 3 min. The total analysis time was 13 min for each sample. The injection volume was 15 μL.
The mass spectrometric detection was performed on an Agilent 6460 triple-quadruple mass spectrometer (Agilent Technologies, Singapore) with an electrospray ionization source. It was operated in the negative ion detection mode because of its higher sensitivity than that in the positive ionization mode on multiple reaction monitoring (MRM). The data were acquired and processed using Mass Hunter Workstation B.06.00 software (Agilent Technologies, Singapore). The source parameters were also optimized as follows: a drying gas flow and temperature at 6 L/min and 350 °C were used, respectively; the sheath gas flow and temperature were maintained at 12 L/min and 350 °C, respectively; the nebulizing gas (N2) pressure was set at 25 psi; and the capillary and nozzle voltages were set at 3500 V and 500 V, respectively.
To 20 μL aliquot of the rat plasma samples, 60 μL of 5 ng/mL IS in methanol was added. The mixture was vortexed for 30 s and kept at 4 °C for 30 min. The mixture was centrifuged at 10,000× g for 10 min. The supernatant was transferred to an HPLC vial, and 15 μL of the processed sample was injected onto the LC-MS/MS system.
Male Sprague‒Dawley rats (8-week-old, weighing 250 ± 10 g) were obtained from Koatech (Pyeongtaek, Korea). They were housed and acclimated in the Animal Laboratory, Gyeongsang National University, under controlled temperature and humidity and regular 12 h light cycle, freely accessible to food and water for 7 days before the experiment. The rats were cannulated into the carotid artery and allowed to recover for one day. Before the pharmacokinetic study, all rats were fasted for 12 h with free access to water. R. acetosa extract suspended in a solution (ethanol:polysorbate 80:water = 1:2:7, v/v/v) was orally administered to the three rats at a dose of 2 g/kg. The calculated doses of compounds based on the contents in the extract were 18.8, 25.8, 13.6, 15.4, 3.4, and 8.2 mg/kg for E, EG, C, CG, P, and PG, respectively. Blood samples (100 µL) were collected via the cannulated carotid vessel at 0, 15, 30, 45 min, 1, 2, 3, 4, 6, 8, 12, and 24 h after oral administration. To collect plasma, the blood samples were immediately centrifuged at 10,000× g for 5 min. All plasma samples were stored at −80 °C until analysis. All experimental procedures of the animal study were approved (GNU-130618-R0038) by the Animal Care and Use Committee of Gyeongsang National University, Korea.

[2] = Stability of the analytes in rat plasma (method validation); type: in vitro ADME; details: n = 3; for Processed Sample Stability, Accuracy: processed rat plasma sample, 4 °C 24 h; for Short Term Stability, Accuracy / Freeze and Thaw Stability, Accuracy / Long Term Stability, Accuracy: rat plasma; for Short Term Stability, Accuracy: room temperature 4 h; for Freeze and Thaw Stability, Accuracy: three freeze-thaw cycles −80 °C to room temperature; for Long Term Stability, Accuracy: −80 °C one month
Experimental: (§1) The stability of the analytes in rat plasma was evaluated by analyzing triplicates of three QC levels at room temperature for 4 h (short-term stability), −80 °C for one month (long-term stability), three freeze-thaw cycles from −80 °C to room temperature (freeze and thaw stability), and 4 °C for 24 h (processed sample stability). The stability of analytes in stock solution was also evaluated. The peak areas obtained from freshly prepared stock solutions were compared with stock solutions stored for 4 h at room temperature.

[3] = Stability of analytes in stock solution; type: physicochemical; details: stock solutions stored at room temperature for 4 h, n = 3
Experimental: The primary stock solutions of E, EG, C, CG, P, PG, and IS were prepared in dimethyl sulfoxide at a concentration of 1 mg/mL and stored at −80 °C. The mixture stock solutions to obtain the standard solutions were serially diluted in methanol. The IS stock solution of 5 ng/mL was prepared in methanol. The calibration standards were prepared by spiking 10 μL of above standard solutions into 90 μL of blank rat plasma to yield concentration ranges of 1–300 ng/mL for E, 20–300 ng/mL for P and C, 1–150 ng/mL for EG, 10–150 ng/mL for CG and PG. Twenty microliters of aliquots were prepared and stored at −80 °C until analysis.
as §1

[4] = design: method as in doi:10.1039/C5RA27273D; details: hyperlipidemic hamsters after administration of rhubarb; cited from earlier work
[5] = design: method as in PMID 19921750; details: after administration of emodin 40 mg/kg; rapidly and extensively metabolized to its glucuronide; cited from earlier work
[6] = male, Sprague-Dawley, plasma, read-out: Median Tmax (converted)
[7] = high QC (P, E, C 300; PG, EG, CG 150 ng/mL)
[8] = low QC (P, C 60; E, EG 3; PG, CG 30 ng/mL)
[9] = middle QC (P, E, C 150; PG, EG, CG 75 ng/mL)
[10] = male, Sprague-Dawley, plasma, n = 3, median (range), read-out: Tmax

| MRT ([1]; male, Sprague-Dawley, plasma) | half-life ([1]; male, Sprague-Dawley, plasma) | Cmax ([1]; male, Sprague-Dawley) | AUC(0-t) ([1]; male, Sprague-Dawley) | first time detected in plasma of every rat (first sampling time) [1] | time from which plasma concentrations were below the LLOQ [1] | Processed Sample Stability, Accuracy [2, 7] | Processed Sample Stability, Accuracy [2, 8] | Processed Sample Stability, Accuracy [2, 9] | Short Term Stability, Accuracy [2, 7] | Short Term Stability, Accuracy [2, 8] | Short Term Stability, Accuracy [2, 9] | Freeze and Thaw Stability, Accuracy [2, 7] | Freeze and Thaw Stability, Accuracy [2, 8] | Freeze and Thaw Stability, Accuracy [2, 9] | Long Term Stability, Accuracy [2, 7] | Long Term Stability, Accuracy [2, 8] | Long Term Stability, Accuracy [2, 9] | mean concentration in stock solution compared with fresh stock solutions [3] | SMILES | Tmax [1, 6] | also measured |
| --- | --- | --- | --- | --- | --- | --- | --- | --- | --- | --- | --- | --- | --- | --- | --- | --- | --- | --- | --- | --- | --- |
| 2.4 ± 0.2 h | 3.9 ± 0.6 h | 156 ± 86 ng/mL | 266 ± 70.9 ng·h/mL | 15 min | 6 h | 102.3% | 101.5% | 103.7% | 101.2% | 103.5% | 98.6% | 92.4% | 89.7% | 91.8% | 102.6% | 104.3% | 97.9% | 95.9% | Cc1cc(O)c2c(c1)C(=O)c1cccc(O)c1C2=O [C, chrysophanol] | 0.25 h | Tmax ([1]; n = 3, median (range)): 0.25 (0.25–0.5) h |
|  |  |  |  |  |  | 100.3% | 91.5% | 107.9% | 98.9% | 99.8% | 108.5% | 100.9% | 100.4% | 112.3% | 102.8% | 102.9% | 107.9% | 100.4% | Cc1cc(O)c2c(c1)C(=O)c1cc(O)cc(O[C@@H]3O[C@H](CO)[C@@H](O)[C@H](O)[C@H]3O)c1C2=O [EG, emodin-8-O-β-D-glucoside] |  | plasma concentrations (in words) [1]: not high enough to determine the pharmacokinetic parameters; detection in plasma (in words) [4]: not detected |
| 2.7 ± 0.6 h | 6.2 ± 3.9 h | 20.5 ± 1.4 ng/mL | 82.8 ± 13.8 ng·h/mL | 15 min | 6 h | 96.8% | 98.8% | 92.7% | 96.7% | 98.9% | 91.8% | 93.6% | 101.5% | 94.3% | 97.1% | 97.7% | 98.5% | 102.4% | COc1cc(O[C@@H]2O[C@H](CO)[C@@H](O)[C@H](O)[C@H]2O)c2c(c1)C(=O)c1cc(C)cc(O)c1C2=O [PG, physcion-8-O-β-D-glucoside] |  | Tmax [1, 10]: 0.75 h |
| 2.4 ± 0.08 h | 4.8 ± 0.5 h | 28.7 ± 4.7 ng/mL | 158 ± 12.3 ng·h/mL | 15 min |  | 96.7% | 91.1% | 100.2% | 101.8% | 97.6% | 96.9% | 97.0% | 98.3% | 101.0% | 101.5% | 97.5% | 100.6% | 101.7% | Cc1cc(O)c2c(c1)C(=O)c1cccc(O[C@@H]3O[C@H](CO)[C@@H](O)[C@H](O)[C@H]3O)c1C2=O [CG, chrysophanol-8-O-β-D-glucoside] |  | Tmax [1, 10]: 2 h; time until which the analyte could be detected in plasma [1]: 8 h |
|  |  |  |  |  |  | 102.7% | 102.2% | 101.6% | 103.8% | 104.9% | 98.9% | 104.2% | 103.6% | 103.9% | 98.0% | 107.3% | 100.1% | 99.2% | COc1cc(O)c2c(c1)C(=O)c1cc(C)cc(O)c1C2=O [P, physcion] |  | plasma concentrations (in words) [1]: not high enough to determine the pharmacokinetic parameters |

| SMILES | MRT ([1]; male, Sprague-Dawley, plasma) | half-life ([1]; male, Sprague-Dawley, plasma) | Cmax ([1]; male, Sprague-Dawley) | AUC(0-t) ([1]; male, Sprague-Dawley) | first time detected in plasma of every rat (first sampling time) [1] | time from which plasma concentrations were below the LLOQ [1] | Processed Sample Stability, Accuracy [2, 7] | Processed Sample Stability, Accuracy [2, 8] | Processed Sample Stability, Accuracy [2, 9] | Short Term Stability, Accuracy [2, 7] | Short Term Stability, Accuracy [2, 8] | Short Term Stability, Accuracy [2, 9] | Freeze and Thaw Stability, Accuracy [2, 7] | Freeze and Thaw Stability, Accuracy [2, 8] | Freeze and Thaw Stability, Accuracy [2, 9] | Long Term Stability, Accuracy [2, 7] | Long Term Stability, Accuracy [2, 8] | Long Term Stability, Accuracy [2, 9] | mean concentration in stock solution compared with fresh stock solutions [3] | Tmax [1, 6] | also measured |
| --- | --- | --- | --- | --- | --- | --- | --- | --- | --- | --- | --- | --- | --- | --- | --- | --- | --- | --- | --- | --- | --- |
| Cc1cc(O)c2c(c1)C(=O)c1cc(O)cc(O)c1C2=O [E, emodin] | 7.7 ± 3 h |  | 124 ± 41.7 ng/mL | 1160 ± 336 ng·h/mL | 15 min |  | 104.6% | 108.2% | 108.0% | 101.8% | 103.2% | 100.7% | 102.0% | 107.5% | 104.5% | 107.7% | 106.8% | 107.8% | 94.8% | 0.25 h | time until which the analyte could be detected in plasma [1]: 24 h; Tmax ([1]; n = 3, median (range)): 0.25 (0.25–0.75) h; time until which the analyte could be detected [4]: 36 h; detection of the parent form (in words) [5]: almost undetectable |
